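A five-concentration, 48-hour dose response in 96-well plates underlies each endpoint, interpolated linearly between surrounding concentrations. GI50: concentration for 50% inhibition of growth.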 The source made the active and inactive calls. No stated cut-off is given here; in the data, active = GI50 up to about 1.1 µM and inactive = higher.
Assays:
Assay in all cases: NCI tumour cell line growth inhibition, 48 h
[1] = tested on: EKVX
[2] = tested on: Malme-3M
[3] = tested on: UACC-257
[4] = tested on: T47D
[5] = tested on: U-251
[6] = tested on: NCI-H522
[7] = tested on: SN12C
[8] = tested on: SK-MEL-28
[9] = tested on: M14
[10] = tested on: SNB-19
[11] = tested on: Hs-578T
[12] = tested on: SF-539
[13] = tested on: SK-OV-3
[14] = tested on: ACHN
[15] = tested on: BT-549
[16] = tested on: SK-MEL-2
[17] = tested on: OVCAR-3
[18] = tested on: A498
[19] = tested on: OVCAR-8
[20] = tested on: UACC-62
[21] = tested on: DU-145
[22] = tested on: PC-3
[23] = tested on: MCF7
[24] = tested on: HOP-92
[25] = tested on: RPMI-8226
[26] = tested on: TK-10
[27] = tested on: MDA-MB-231
[28] = tested on: A549
[29] = tested on: SK-MEL-5
[30] = tested on: SF-268
[31] = tested on: LOX IMVI
[32] = tested on: SNB-75
[33] = tested on: HCT-15
[34] = tested on: HT-29
[35] = tested on: K562
[36] = tested on: CCRF-CEM
[37] = tested on: MOLT-4
[38] = tested on: HOP-62
[39] = tested on: MDA-MB-435
[40] = tested on: KM12
[41] = tested on: HCT-116
[42] = tested on: CAKI-1
[43] = tested on: NCI-H460
[44] = tested on: NCI/ADR-RES
[45] = tested on: SF-295
[46] = tested on: COLO 205
[47] = tested on: 786-0
[48] = tested on: UO-31
[49] = tested on: NCI-H226
[50] = tested on: NCI-H23
[51] = tested on: OVCAR-4
[52] = tested on: RXF 393
[53] = tested on: OVCAR-5
[54] = tested on: IGROV-1
[55] = tested on: MDA-N
[56] = tested on: SW-620
[57] = tested on: HL-60
[58] = tested on: HCC 2998

CC(=O)c1ccc(O)c(CN(C2CCCCC2)C2CCCCC2)c1O
GI50 [1]: > 100 µM (inactive) | GI50 [2]: > 100 µM (inactive) | GI50 [3]: > 100 µM (inactive) | GI50 [4]: 21.6 µM (inactive) | GI50 [5]: > 100 µM (inactive) | GI50 [6]: > 100 µM (inactive) | GI50 [7]: > 100 µM (inactive) | GI50 [8]: > 100 µM (inactive) | GI50 [9]: > 100 µM (inactive) | GI50 [10]: > 100 µM (inactive) | GI50 [11]: > 100 µM (inactive) | GI50 [12]: > 100 µM (inactive) | GI50 [13]: > 100 µM (inactive) | GI50 [14]: > 100 µM (inactive) | GI50 [15]: > 100 µM (inactive) | GI50 [16]: > 100 µM (inactive) | GI50 [17]: > 100 µM (inactive) | GI50 [18]: > 100 µM (inactive) | GI50 [19]: > 100 µM (inactive) | GI50 [20]: > 100 µM (inactive) | GI50 [21]: > 100 µM (inactive) | GI50 [22]: > 100 µM (inactive) | GI50 [23]: > 100 µM (inactive) | GI50 [24]: > 100 µM (inactive) | GI50 [25]: > 100 µM (inactive) | GI50 [26]: 74.3 µM (inactive) | GI50 [27]: > 100 µM (inactive) | GI50 [28]: > 100 µM (inactive) | GI50 [29]: > 100 µM (inactive) | GI50 [30]: > 100 µM (inactive) | GI50 [31]: > 100 µM (inactive) | GI50 [32]: 2.19 µM (inactive) | GI50 [33]: > 100 µM | GI50 [34]: > 100 µM (inactive) | GI50 [35]: > 100 µM (inactive) | GI50 [36]: 0.0611 µM (active) | GI50 [37]: 61.4 µM (inactive) | GI50 [38]: > 100 µM (inactive) | GI50 [39]: > 100 µM (inactive) | GI50 [40]: > 100 µM (inactive) | GI50 [41]: > 100 µM (inactive) | GI50 [42]: > 100 µM (inactive) | GI50 [43]: > 100 µM (inactive) | GI50 [44]: > 100 µM (inactive) | GI50 [45]: > 100 µM (inactive) | GI50 [46]: > 100 µM (inactive) | GI50 [47]: > 100 µM (inactive) | GI50 [48]: 83.2 µM (inactive) | GI50 [49]: > 100 µM (inactive) | GI50 [50]: > 100 µM (inactive) | GI50 [51]: > 100 µM (inactive) | GI50 [52]: > 100 µM (inactive) | GI50 [53]: > 100 µM (inactive) | GI50 [54]: > 100 µM (inactive) | GI50 [55]: > 100 µM (inactive) | GI50 [56]: 81.1 µM (inactive)

O=C1/C(=C/c2ccc3c(c2)OCO3)Sc2scc(-c3ccc(O)c(O)c3)[n+]21
GI50 [1]: 2.67 µM (inactive) | GI50 [3]: 3.6 µM (inactive) | GI50 [4]: 2.97 µM (inactive) | GI50 [5]: 4.62 µM (inactive) | GI50 [6]: 1.04 µM (active) | GI50 [7]: 2.04 µM (inactive) | GI50 [8]: 3.08 µM (inactive) | GI50 [9]: 3 µM (inactive) | GI50 [10]: 10.7 µM (inactive) | GI50 [57]: 0.325 µM (active) | GI50 [58]: 1.82 µM (inactive) | GI50 [11]: 7.13 µM (inactive) | GI50 [12]: 2.31 µM (inactive) | GI50 [13]: 8.11 µM (inactive) | GI50 [14]: 1.86 µM (inactive) | GI50 [15]: 2.04 µM (inactive) | GI50 [16]: 10.8 µM (inactive) | GI50 [17]: 4.61 µM (inactive) | GI50 [19]: 2.99 µM (inactive) | GI50 [20]: 2.67 µM (inactive) | GI50 [21]: 4.44 µM (inactive) | GI50 [22]: 4.38 µM (inactive) | GI50 [23]: 3.22 µM (inactive) | GI50 [24]: 2.65 µM (inactive) | GI50 [25]: 1.71 µM (inactive) | GI50 [26]: 2.04 µM (inactive) | GI50 [27]: 3.54 µM (inactive) | GI50 [28]: 11.1 µM (inactive) | GI50 [29]: 2.54 µM (inactive) | GI50 [30]: 3.9 µM (inactive) | GI50 [31]: 2.34 µM (inactive) | GI50 [32]: 0.644 µM (active) | GI50 [33]: 1.63 µM | GI50 [34]: 3.74 µM (inactive) | GI50 [35]: 0.506 µM (active) | GI50 [36]: 0.264 µM (active) | GI50 [37]: 0.927 µM (active) | GI50 [38]: 6.44 µM (inactive) | GI50 [39]: 3.3 µM (inactive) | GI50 [40]: 2.65 µM (inactive) | GI50 [41]: 1.96 µM (inactive) | GI50 [42]: 1.53 µM (inactive) | GI50 [43]: 3.56 µM (inactive) | GI50 [44]: 1.87 µM (inactive) | GI50 [45]: 10 µM (inactive) | GI50 [46]: 2.55 µM (inactive) | GI50 [47]: 1.92 µM (inactive) | GI50 [48]: 2.29 µM (inactive) | GI50 [49]: 13.3 µM (inactive) | GI50 [50]: 2.69 µM (inactive) | GI50 [51]: 4.2 µM (inactive) | GI50 [52]: 3.11 µM (inactive) | GI50 [53]: 8.32 µM (inactive) | GI50 [54]: 2.7 µM (inactive) | GI50 [55]: 3.12 µM (inactive) | GI50 [56]: 1.99 µM (inactive)

O=C(c1ccccc1)c1ccc2c(c1)nc1n2C(c2c(F)cccc2F)SC1 (stereo not drawn)
GI50 [1]: 11.5 µM (inactive) | GI50 [2]: 31.2 µM (inactive) | GI50 [3]: 29.6 µM (inactive) | GI50 [4]: 4.71 µM (inactive) | GI50 [5]: 28.8 µM (inactive) | GI50 [6]: 34.7 µM (inactive) | GI50 [7]: 18.7 µM (inactive) | GI50 [8]: 32.1 µM (inactive) | GI50 [9]: 20.8 µM (inactive) | GI50 [10]: 32.1 µM (inactive) | GI50 [58]: 36.5 µM (inactive) | GI50 [11]: 59 µM (inactive) | GI50 [12]: 28.6 µM (inactive) | GI50 [13]: 30.5 µM (inactive) | GI50 [14]: 28.8 µM (inactive) | GI50 [15]: 26.7 µM (inactive) | GI50 [16]: 18.5 µM (inactive) | GI50 [17]: 19.9 µM (inactive) | GI50 [18]: 19.5 µM (inactive) | GI50 [19]: 24.5 µM (inactive) | GI50 [20]: 15.5 µM (inactive) | GI50 [21]: 40.5 µM (inactive) | GI50 [22]: 16.3 µM (inactive) | GI50 [23]: 26.5 µM (inactive) | GI50 [24]: 40.5 µM (inactive) | GI50 [25]: 30.3 µM (inactive) | GI50 [26]: 39.2 µM (inactive) | GI50 [27]: 41.9 µM (inactive) | GI50 [28]: 22 µM (inactive) | GI50 [29]: 12.9 µM (inactive) | GI50 [30]: 49.9 µM (inactive) | GI50 [31]: 25.6 µM (inactive) | GI50 [32]: 18.9 µM (inactive) | GI50 [33]: 36.6 µM | GI50 [34]: 13 µM (inactive) | GI50 [38]: 34 µM (inactive) | GI50 [39]: 27.3 µM (inactive) | GI50 [40]: 11.2 µM (inactive) | GI50 [41]: 15 µM (inactive) | GI50 [42]: 21.1 µM (inactive) | GI50 [43]: 17.1 µM (inactive) | GI50 [44]: 29.9 µM (inactive) | GI50 [45]: 17.9 µM (inactive) | GI50 [46]: 24.1 µM (inactive) | GI50 [47]: 27.4 µM (inactive) | GI50 [48]: 11.6 µM (inactive) | GI50 [49]: 34.8 µM (inactive) | GI50 [50]: 28.8 µM (inactive) | GI50 [51]: 21.7 µM (inactive) | GI50 [52]: 29 µM (inactive) | GI50 [53]: 25.8 µM (inactive) | GI50 [54]: 52.4 µM (inactive) | GI50 [55]: 19.7 µM (inactive) | GI50 [56]: 37.2 µM (inactive)

O=C(CCc1ccccc1)ON1C(=S)NC(c2ccccc2)(c2ccccc2)C1=S
GI50 [1]: 25.4 µM (inactive) | GI50 [2]: 20.8 µM (inactive) | GI50 [3]: 36.5 µM (inactive) | GI50 [4]: 41.6 µM (inactive) | GI50 [5]: 39.4 µM (inactive) | GI50 [7]: 44.8 µM (inactive) | GI50 [8]: > 100 µM (inactive) | GI50 [9]: 42.1 µM (inactive) | GI50 [10]: 64.4 µM (inactive) | GI50 [57]: 21.6 µM (inactive) | GI50 [58]: 29.4 µM (inactive) | GI50 [11]: 31.1 µM (inactive) | GI50 [12]: 26.4 µM (inactive) | GI50 [13]: 35.6 µM (inactive) | GI50 [14]: 44.9 µM (inactive) | GI50 [15]: 37.8 µM (inactive) | GI50 [16]: 20.2 µM (inactive) | GI50 [17]: 29 µM (inactive) | GI50 [18]: > 100 µM (inactive) | GI50 [19]: 31.2 µM (inactive) | GI50 [20]: 33.9 µM (inactive) | GI50 [21]: 68.1 µM (inactive) | GI50 [22]: 23.4 µM (inactive) | GI50 [23]: 32.9 µM (inactive) | GI50 [24]: 65 µM (inactive) | GI50 [25]: 29.1 µM (inactive) | GI50 [26]: 54.5 µM (inactive) | GI50 [27]: 51.3 µM (inactive) | GI50 [28]: 37.5 µM (inactive) | GI50 [29]: 19.5 µM (inactive) | GI50 [30]: 28.2 µM (inactive) | GI50 [31]: 21.1 µM (inactive) | GI50 [32]: 33 µM (inactive) | GI50 [33]: 28.4 µM | GI50 [34]: 25.4 µM (inactive) | GI50 [35]: 14.6 µM (inactive) | GI50 [36]: 21.9 µM (inactive) | GI50 [37]: 32.3 µM (inactive) | GI50 [38]: 30.1 µM (inactive) | GI50 [39]: 36.9 µM (inactive) | GI50 [40]: 27.4 µM (inactive) | GI50 [41]: 23.7 µM (inactive) | GI50 [42]: 33.7 µM (inactive) | GI50 [43]: 31.6 µM (inactive) | GI50 [44]: 28.5 µM (inactive) | GI50 [45]: 42 µM (inactive) | GI50 [46]: 40.2 µM (inactive) | GI50 [47]: 19.7 µM (inactive) | GI50 [48]: 43.4 µM (inactive) | GI50 [49]: 22 µM (inactive) | GI50 [50]: 30.3 µM (inactive) | GI50 [51]: 33.7 µM (inactive) | GI50 [52]: 36 µM (inactive) | GI50 [53]: 61.4 µM (inactive) | GI50 [54]: 25.9 µM (inactive) | GI50 [55]: 38.1 µM (inactive) | GI50 [56]: 42.4 µM (inactive)

From ChEMBL document CHEMBL1201862, “PubChem BioAssay data set” (2004)
